Patent publication US12459974B2, “Bicyclic peptide ligands specific for Nectin-4” (priority 2018, dated 2025)
*1 amine or outer side, *2 acyl side, *3 side chain or, on linkers, in order; H or OH if unused. Where a SMILES comes first, the peptide text is derived from it. Bridges are numbered along the chain shown (N, C = ends). Roman numbers before positions name the chains, in order. [ ]: non-standard residue; d: D form. The star is where a group is joined. ξ: configuration not given here. TATA = O=C(CC[*:1])N1CN(C(=O)CC[*:2])CN(C(=O)CC[*:3])C1; Dolaproine = CO[C@@H]([C@@H]1CCCN1)[C@@H](C)C(=O)O; X1 = CC[C@H](C)C(C(CC(=O)[*:2])OC)N(C)[*:1]; 1Nal = N[C@@H](Cc1cccc2ccccc12)C(=O)O; X3 = O=C(CCCC(=O)[*:2])NCCC(=O)[*:1]; PABC = O=C(OCc1ccc(N[*:1])cc1)[*:2]; Hyp = O=C(O)[C@@H]1C[C@@H](O)CN1; hArg = N=C(N)NCCCC[C@H](N)C(=O)O; Cit = NC(=O)NCCC[C@H](N)C(=O)O; X2 = CC(N*)[C@@H](O)c1ccccc1; ξNMeV = CNC(C(=O)O)C(C)C; ξV = CC(C)C(N)C(=O)O; Sar = CNCC(=O)O

Tests used:
MDA-MB-468 xenograft [1] = experiment: Example 9.9: in vivo efficacy of BCY8245 alone or with BCY8234 in MDA-MB-468 xenograft (large tumors) in Balb/c nude mice; design: species or system Mus Musculus
MDA-MB-468 xenograft [2] = experiment: Example 4: in vivo efficacy in MDA-MB-468 xenograft (breast cancer model) in Balb/c nude mice; design: species or system Mus Musculus; settings: for TGI / Tumor volume (TV): day 21; for Tumor volume: 3 mpk, biw, iv
[3] = 3 mg/kg qw in combination with BCY8234 300 mg/kg qw, day 28

Compound: CC[C@H](C)C(C(CC(=O)N1CCC[C@H]1[C@H](OC)[C@@H](C)C(=O)NC(C)[C@@H](O)c1ccccc1)OC)N(C)C(=O)[C@@H](NC(=O)C(C(C)C)N(C)C(=O)OCc1ccc(NC(=O)[C@H](CCCNC(N)=O)NC(=O)C(NC(=O)CCCC(=O)NCCC(=O)N(C)CC(=O)N(C)CC(=O)N(C)CC(=O)N(C)CC(=O)N(C)CC(=O)N(C)CC(=O)N(C)CC(=O)N(C)CC(=O)N(C)CC(=O)N(C)CC(=O)N[C@H]2CSCCC(=O)N3CN4CN(C3)C(=O)CCSC[C@H](NC(=O)[C@@H](CC(=O)O)NC(=O)[C@H](Cc3cccc5ccccc35)NC(=O)[C@@H]3CCCN3C2=O)C(=O)N[C@@H](CCSC)C(=O)N[C@@H](CCCCNC(=N)N)C(=O)N[C@@H](CC(=O)O)C(=O)N[C@@H](Cc2c[nH]c3ccccc23)C(=O)N[C@@H](CO)C(=O)N[C@@H]([C@@H](C)O)C(=O)N2CCC[C@H]2C(=O)N2C[C@H](O)C[C@H]2C(=O)N[C@@H](Cc2c[nH]c3ccccc23)C(=O)N[C@H](C(N)=O)CSCCC4=O)C(C)C)cc1)C(C)C (stereo partly drawn) [BCY8245, MMAE-PABC-Cit-Val-Glutaryl-BCY8234] (I: [Sar][Sar][Sar][Sar][Sar][Sar][Sar][Sar][Sar][Sar]CP[1Nal][dD]CM[hArg]DWSTP[Hyp]WC-NH2 / II: [ξV][Cit][PABC][ξNMeV]V[X1][Dolaproine]-X2; linker I:11-I:15-I:25 via TATA; linker I:N-II:N via X3)
- TGI (MDA-MB-468 xenograft [1]; 1 mg/kg qw, day 28): 126.6%
- Tumor volume (TV) (MDA-MB-468 xenograft [1]; 1 mg/kg qw, day 28): 384 mm^3
- TGI (MDA-MB-468 xenograft [1]; [3]): 234.0%
- Tumor volume (TV) (MDA-MB-468 xenograft [1]; [3]): 55 mm^3
- tumor relapse (in words) (MDA-MB-468 xenograft [1]; 3 mg/kg qw in combination with BCY8234 300 mg/kg qw, whole monitoring schedule): didn't showed any relapse
- tumor relapse (in words) (MDA-MB-468 xenograft [1]; 3 mg/kg qw, after ceasing the treatment): some tumor relapse
- TGI (MDA-MB-468 xenograft [1]; 3 mg/kg qw, day 28): 234.6%
- Tumor volume (TV) (MDA-MB-468 xenograft [1]; 3 mg/kg qw, day 28): 50 mm^3
- Tumor volume (MDA-MB-468 xenograft [1]; 1 mpk, qw, day 0 after the start of treatment): 466 mm^3
- Tumor volume (MDA-MB-468 xenograft [1]; 1 mpk, qw, day 2): 480 mm^3
- Tumor volume (MDA-MB-468 xenograft [1]; 1 mpk, qw, day 5): 453 mm^3
- Tumor volume (MDA-MB-468 xenograft [1]; 1 mpk, qw, day 7): 474 mm^3
- Tumor volume (MDA-MB-468 xenograft [1]; 1 mpk, qw, day 9): 446 mm^3
- Tumor volume (MDA-MB-468 xenograft [1]; 1 mpk, qw, day 12): 461 mm^3
- Tumor volume (MDA-MB-468 xenograft [1]; 1 mpk, qw, day 14): 460 mm^3
- Tumor volume (MDA-MB-468 xenograft [1]; 1 mpk, qw, day 16): 433 mm^3
- Tumor volume (MDA-MB-468 xenograft [1]; 1 mpk, qw, day 19): 412 mm^3
- Tumor volume (MDA-MB-468 xenograft [1]; 1 mpk, qw, day 21): 430 mm^3
- Tumor volume (MDA-MB-468 xenograft [1]; 1 mpk, qw, day 23): 421 mm^3
- Tumor volume (MDA-MB-468 xenograft [1]; 1 mpk, qw, day 26): 382 mm^3
- T/C (MDA-MB-468 xenograft [1]; 1 mpk, qw, day 28): 49.7%
- TGI (MDA-MB-468 xenograft [1]; 1 mpk, qw, day 28): 126.6%
- Tumor volume (MDA-MB-468 xenograft [1]; 1 mpk, qw, day 28): 384 mm^3
- Tumor volume (MDA-MB-468 xenograft [1]; 3 mpk, qw, day 0 after the start of treatment): 464 mm^3
- Tumor volume (MDA-MB-468 xenograft [1]; 3 mpk, qw, day 2): 451 mm^3
- Tumor volume (MDA-MB-468 xenograft [1]; 3 mpk, qw, day 5): 388 mm^3
- Tumor volume (MDA-MB-468 xenograft [1]; 3 mpk, qw, day 7): 333 mm^3
- Tumor volume (MDA-MB-468 xenograft [1]; 3 mpk, qw, day 9): 284 mm^3
- Tumor volume (MDA-MB-468 xenograft [1]; 3 mpk, qw, day 12): 168 mm^3
- Tumor volume (MDA-MB-468 xenograft [1]; 3 mpk, qw, day 14): 129 mm^3
- Tumor volume (MDA-MB-468 xenograft [1]; 3 mpk, qw, day 16): 93 mm^3
- Tumor volume (MDA-MB-468 xenograft [1]; 3 mpk, qw, day 19): 83 mm^3
- Tumor volume (MDA-MB-468 xenograft [1]; 3 mpk, qw, day 21): 71 mm^3
- Tumor volume (MDA-MB-468 xenograft [1]; 3 mpk, qw, day 23): 60 mm^3
- Tumor volume (MDA-MB-468 xenograft [1]; 3 mpk, qw, day 26): 49 mm^3
- T/C (MDA-MB-468 xenograft [1]; 3 mpk, qw, day 28): 6.4%
- TGI (MDA-MB-468 xenograft [1]; 3 mpk, qw, day 28): 234.6%
- Tumor volume (MDA-MB-468 xenograft [1]; 3 mpk, qw, day 28): 50 mm^3
- Tumor volume (MDA-MB-468 xenograft [1]; Group1, Vehicle, dosed with 5 mpk BCY8245 on PG-D28, day 30): 625 ± 27 mm^3
- Tumor volume (MDA-MB-468 xenograft [1]; Group1, Vehicle, dosed with 5 mpk BCY8245 on PG-D28, day 33): 477 ± 31 mm^3
- Tumor volume (MDA-MB-468 xenograft [1]; Group1, Vehicle, dosed with 5 mpk BCY8245 on PG-D28, day 35): 405 ± 65 mm^3
- Tumor volume (MDA-MB-468 xenograft [1]; Group1, Vehicle, dosed with 5 mpk BCY8245 on PG-D28, day 37): 237 ± 36 mm^3
- Tumor volume (MDA-MB-468 xenograft [1]; Group1, Vehicle, dosed with 5 mpk BCY8245 on PG-D28, day 40): 148 ± 33 mm^3
- Tumor volume (MDA-MB-468 xenograft [1]; Group1, Vehicle, dosed with 5 mpk BCY8245 on PG-D28, day 42): 142 ± 33 mm^3
- Tumor volume (MDA-MB-468 xenograft [1]; Group1, Vehicle, dosed with 5 mpk BCY8245 on PG-D28, day 44): 132 ± 69 mm^3
- Tumor volume (MDA-MB-468 xenograft [1]; Group1, Vehicle, dosed with 5 mpk BCY8245 on PG-D28, day 48): 146 ± 100 mm^3
- Tumor volume (MDA-MB-468 xenograft [1]; Group1, Vehicle, dosed with 5 mpk BCY8245 on PG-D28, day 51): 171 ± 122 mm^3
- Tumor volume (MDA-MB-468 xenograft [1]; Group1, Vehicle, dosed with 5 mpk BCY8245 on PG-D28, day 55): 227 ± 166 mm^3
- Tumor volume (MDA-MB-468 xenograft [1]; Group1, Vehicle, dosed with 5 mpk BCY8245 on PG-D28, day 56): 264 ± 182 mm^3
- Tumor volume (MDA-MB-468 xenograft [1]; Group1, Vehicle, dosed with 5 mpk BCY8245 on PG-D28, day 62): 288 ± 206 mm^3
- Tumor volume (MDA-MB-468 xenograft [1]; Group 2, 1 mpk, change in 5 mpk on PG-D28, day 30): 351 ± 42 mm^3
- Tumor volume (MDA-MB-468 xenograft [1]; Group 2, 1 mpk, change in 5 mpk on PG-D28, day 33): 213 ± 29 mm^3
- Tumor volume (MDA-MB-468 xenograft [1]; Group 2, 1 mpk, change in 5 mpk on PG-D28, day 35): 151 ± 18 mm^3
- Tumor volume (MDA-MB-468 xenograft [1]; Group 2, 1 mpk, change in 5 mpk on PG-D28, day 37): 98 ± 16 mm^3
- Tumor volume (MDA-MB-468 xenograft [1]; Group 2, 1 mpk, change in 5 mpk on PG-D28, day 40): 89 ± 17 mm^3
- Tumor volume (MDA-MB-468 xenograft [1]; Group 2, 1 mpk, change in 5 mpk on PG-D28, day 42): 95 ± 16 mm^3
- Tumor volume (MDA-MB-468 xenograft [1]; Group 2, 1 mpk, change in 5 mpk on PG-D28, day 44): 103 ± 20 mm^3
- Tumor volume (MDA-MB-468 xenograft [1]; Group 2, 1 mpk, change in 5 mpk on PG-D28, day 48): 106 ± 21 mm^3
- Tumor volume (MDA-MB-468 xenograft [1]; Group 2, 1 mpk, change in 5 mpk on PG-D28, day 51): 103 ± 21 mm^3
- Tumor volume (MDA-MB-468 xenograft [1]; Group 2, 1 mpk, change in 5 mpk on PG-D28, day 55): 104 ± 20 mm^3
- Tumor volume (MDA-MB-468 xenograft [1]; Group 2, 1 mpk, change in 5 mpk on PG-D28, day 56): 120 ± 23 mm^3
- Tumor volume (MDA-MB-468 xenograft [1]; Group3, 3 mpk, qw, day 30): 44 ± 18 mm^3
- Tumor volume (MDA-MB-468 xenograft [1]; Group3, 3 mpk, qw, day 33): 43 ± 20 mm^3
- Tumor volume (MDA-MB-468 xenograft [1]; Group3, 3 mpk, qw, day 35): 44 ± 20 mm^3
- Tumor volume (MDA-MB-468 xenograft [1]; Group3, 3 mpk, qw, day 37): 50 ± 24 mm^3
- Tumor volume (MDA-MB-468 xenograft [1]; Group3, 3 mpk, qw, day 40): 55 ± 29 mm^3
- Tumor volume (MDA-MB-468 xenograft [1]; Group3, 3 mpk, qw, day 42): 66 ± 32 mm^3
- Tumor volume (MDA-MB-468 xenograft [1]; Group3, 3 mpk, qw, day 44): 71 ± 33 mm^3
- Tumor volume (MDA-MB-468 xenograft [1]; Group3, 3 mpk, qw, day 48): 80 ± 36 mm^3
- Tumor volume (MDA-MB-468 xenograft [1]; Group3, 3 mpk, qw, day 51): 91 ± 43 mm^3
- Tumor volume (MDA-MB-468 xenograft [1]; Group3, 3 mpk, qw, day 55): 108 ± 53 mm^3
- Tumor volume (MDA-MB-468 xenograft [1]; Group3, 3 mpk, qw, day 56): 125 ± 58 mm^3
- tumor response (in words) (MDA-MB-468 xenograft [1]; former vehicle group and group 2, 5 mg/kg on PG-D28, following 3 weeks): effective tumor regression
- TGI (MDA-MB-468 xenograft [2]; 3 mg/kg biw): 169.8%
- Tumor volume (TV) (MDA-MB-468 xenograft [2]; 3 mg/kg biw): 22 mm^3
- TGI (MDA-MB-468 xenograft [2]; 3 mg/kg qw): 144.2%
- Tumor volume (TV) (MDA-MB-468 xenograft [2]; 3 mg/kg qw): 85 mm^3
- TGI (MDA-MB-468 xenograft [2]; 5 mg/kg qw): 168.4%
- Tumor volume (TV) (MDA-MB-468 xenograft [2]; 5 mg/kg qw): 29 mm^3
- Tumor volume (MDA-MB-468 xenograft [2]; day 0 after start of treatment): 195 ± 33 mm^3
- Tumor volume (MDA-MB-468 xenograft [2]; day 2): 193 ± 27 mm^3
- Tumor volume (MDA-MB-468 xenograft [2]; day 4): 154 ± 20 mm^3
- Tumor volume (MDA-MB-468 xenograft [2]; day 7): 103 ± 20 mm^3
- Tumor volume (MDA-MB-468 xenograft [2]; day 9): 83 ± 16 mm^3
